Measurements as given in US4305872A, “Polypeptide derivatives” (priority 1979, dated 1981).

Assays:
[1] = tested on: TRH-Induced Release of Radioactive (125I) Iodide from the Thyroid; test: McKenzie Bioassay for TRH-Induced Release of Radioactive (125I) Iodide from the Thyroid; type: in vivo, Long-Evans male rats; details: worked Example; for (I-125) cpm/200 ul blood at THR: tail vein; for Δ cpm: net of saline control
Method: 16 Long-Evans male rats were maintained on an iodine deficient diet for 1 week. Each rat was then injected intraperitoneally (i.p.) with 20 μCi of radioactive (Na^125 I). Six hours before injection of the material to be tested, the animals were given 0.03% propylthioluracil (PTU) in their drinking water. This prevents the re-uptake of released ^125 I (iodoproteins such as mono- and diodo-tyrosines, T3 or T4) once they are released from the thyroid under the influence of TRH or TRH analogue. 24 hrs. after administration of the radioactive iodine (0.2 ml) 200 μl of blood was withdrawn from the tail vein of each rat, transferred quantitatively into a 12×75 mm test tube containing 1 ml of 0.9% saline and the ^125 I content counted by use of a Beckmann γ-ray spectrometer. One ml of TRH or TRH analogue dissolved in 0.9% NaCl (physiologic saline) was injected into the tail vein of each of four rats per dose considered (e.g. 0.4 μgm, 40 μgm, 80 μgm). 1 ml of 0.9% NaCl (physiologic saline) was injected also to each of four rats to serve as a control for stress-related influence (trauma from blood collecting procedure and anesthesia) on release of ^125 I from the thyroid gland. Once the saline control or designated dose of TRH or TRH analogue has been injected, blood samples (0.2 ml) are collected from the tail vein of each rat at 30 minutes, 1 hr, 2 hrs, and 3 hrs. and the ^125 I content evaluated as described above. Upon completion of the experiment, animals are kept for a 24 hr time period to observe any adverse toxicological effects. If they maintain their usual behavior (vital signs), it is assumed the compounds tested cause no overt physiological effects.
An increase in I-125 content above the basal level, as exemplified by the saline control, indicates a TRH induced release of TSH (thyrotropin stimulating hormone) which in turn causes release of I-125 from the thyroid. This type of response means the […] hormone physiologic mechanism (hypothalamo-pituitary-thyroid axis) is working properly, and the animals are suitable for testing. […] For each dose level considered, the radio-activity content of I-125 (cpm) per 200 μl of blood is evaluated at each time period and subtracted from the saline control radioactivity (I-125) content to obtain the Δ cpm released from thyroid. The net cpm released is therefore evaluated, rather than the absolute radio-activity for each time period and dose level.
To evaluate the effect of TRH analogues (TRH-CMK or TRH-DMK) on the TRH-TSH release of I-125 from the thyroid, each animal of a test group (4 animals) was injected with 1 ml of a given dose of the TRH analogue into the tail vein. […] Blood samples (0.2 ml) were then collected at various times (e.g. 1/2, 1 hr, 2 hrs, etc.) and evaluated for their I-125 content. […]

[2] = tested on: Serum TSH level; test: 6 Point Parallel Line Assay, serum TSH level after inhibitor then TRH; type: in vivo; details: no inhibitor (saline injected)
Method: (§1) 6 Point Parallel Line Assay Design:
(§2) 3 sample, 3 standard samples
(§3) Responses expressed in (Ng/ml)
(§4) Animals challenged with peptide derivative dissolved in 0.85% NaCl.
(§5) Total Injection Volume: 0.25 ml
(§6) Anatomical Site of Injection: Jugular vein
(§7) Samples obtained by subjecting animal to ether anesthesia, and sacrificing animal.
(§8) Each animal was injected via jugular vein 0.25 ml of peptide derivative: to insure sample was injected into vein, the syringe plunger was gently retracted, if blood could be withdrawn, then the sample was injected. Following injection, the syringe was rinsed with blood and injected. 1/2-hour following injection of the peptide derivative, using the same procedure, a TRH dose-response curve was made using the same injection technique.
(§9) 0 time--injection of TRH derivative (80 ugm)
(§10) 1/2 hr.--injection of TRH (4, 40, and 80 ugm)
(§11) 1 hrs.--blood sample collected

[3] = tested on: Serum Prolactin Level; test: 6 Point Parallel Line Assay, serum prolactin level after inhibitor then TRH; type: in vivo; details: no inhibitor (saline injected)
Method: as §1, §2, §3, §4, §5, §6, §7, §8, §9, §10, §11

[4] = tested on: guinea pig ileum (opiate receptor site); test: Guinea pig ileum (GPI) assay for enkephalin activity, electrically stimulated contractions; details: specificity controls; FIGS. 6-9

Compound: NC(=O)[C@@H]1CCCN1C(=O)[C@H](Cc1c[nH]cn1)NC(=O)[C@@H]1CCC(=O)N1 [TRH, L-pyroglutamyl-L-histidyl-L-prolinamide]
- (I-125) cpm/200 ul blood at THR ([1]; 0.4 μgm TRH): 261 cpm/200 ul
- Δ cpm ([1]; 0.4 μgm TRH): +141 cpm
- (I-125) cpm/200 ul blood at THR ([1]; 4 μgm TRH): 358 cpm/200 ul
- Δ cpm ([1]; 4 μgm TRH): +238 cpm
- Serum TSH level ([2]; FIRST EXPERIMENT, TRH 4 μg): 312 ng/mL
- Serum TSH level ([2]; FIRST EXPERIMENT, TRH 40 μg): 412 ng/mL
- Serum TSH level ([2]; FIRST EXPERIMENT, TRH 80 μg): 1139 ng/mL
- Serum TSH level ([2]; SECOND EXPERIMENT, TRH 4 μg): 167 ng/mL
- Serum TSH level ([2]; SECOND EXPERIMENT, TRH 40 μg): 612 ng/mL
- Serum TSH level ([2]; SECOND EXPERIMENT, TRH 80 μg): 839 ng/mL
- Serum Prolactin Level ([3]; FIRST EXPERIMENT, TRH 4 μg): 61 ng/mL
- Serum Prolactin Level ([3]; FIRST EXPERIMENT, TRH 40 μg): 76 ng/mL
- Serum Prolactin Level ([3]; FIRST EXPERIMENT, TRH 80 μg): 216 ng/mL
- Serum Prolactin Level ([3]; SECOND EXPERIMENT, TRH 4 μg): 46 ng/mL
- Serum Prolactin Level ([3]; SECOND EXPERIMENT, TRH 40 μg): 150 ng/mL
- Serum Prolactin Level ([3]; SECOND EXPERIMENT, TRH 80 μg): 181 ng/mL

Compound: N-tosyl-phenylalanine chloromethyl ketone
- whether it effects a response on the GPI (neither = no response) [4]: neither
